Assay results from article PMC9387934, “Randomized single oral dose phase 1 study of safety, tolerability, and pharmacokinetics of Iminosugar UV-4 Hydrochloride (UV-4B) in healthy subjects” (PLoS Neglected Tropical Diseases, 2022).
Where a name gives a salt, the structure may show the parent alone. Read-outs that look alike come from different tables or passages of the source.

Columns and labels:
[1] = cited from earlier work
[2] = 14-day GLP toxicology study in dogs (UV4-COV-0035); assay type: in vivo, dog
Experimental: Fourteen-day studies were conducted in mice and dogs. In dogs at 2 mg/kg/dose TID (6 mg/kg/day), there were mild decreases in platelets (PLT), increases in aspartate aminotransferase (AST) (up to 2.8 x baseline [BL]); and a decrease in thymus weight with lymphocyte depletion. Therefore, this dose exceeded the NOEL. At the no observed adverse event level (NOAEL) of 10 mg/kg/dose TID (30 mg/kg/day), there was an increase in the occurrence of poorly formed and liquid feces; decrease in PLT count and increase in activated partial thromboplastin time (aPTT) (2.2 x BL); increase in AST (up to 9.7 x BL) and alanine aminotransferase (ALT) (up to 2.9 x BL) with an inverted AST/ALT ratio; and a decrease in […]
lymphocyte depletion (no cellular debris was noted, however). The inverted AST/ALT ratio and lymphocyte depletion were reversible. Thymus weight decrease in females was reversible but thymus weight decreases in males were not. However, because the apparent […]
microscopic thymus findings, thymus weight differences at the recovery necropsy were considered not toxicologically important. […]
ng•h/mL, respectively. Daily exposure at NOAEL [calculated as 3 x AUC(0-8)] is estimated at 163,305 ng•h/mL. […]
Daily exposure [calculated as 3 x AUC(0-8)] is estimated at 32,820 ng•h/mL. […]

[3] = tested on: cultured human lymphocytes; settings: in vitro; ref Investigator’s Brochure (IB); cited from earlier work
[4] = design: method as in Investigator’s Brochure (IB); settings: beagle dogs, single dose of 400 mg/kg; ref Investigator’s Brochure (IB); cited from earlier work
[5] = mouse, cited from earlier work
[6] = ICH accelerated stability storage condition; cited from earlier work
[7] = compared with UV-4; cited from earlier work
CYP2C9 = tested on: CYP2C9; design: method as in Investigator’s Brochure (IB); settings: in vitro; ref Investigator’s Brochure (IB); cited from earlier work
[8] = design: method as in Investigator’s Brochure (IB); settings: rat, average; ref Investigator’s Brochure (IB); cited from earlier work
CYP2D6 = tested on: CYP2D6; design: method as in Investigator’s Brochure (IB); settings: in vitro; ref Investigator’s Brochure (IB); cited from earlier work
CYP1A2 = tested on: CYP1A2; design: method as in Investigator’s Brochure (IB); settings: in vitro; ref Investigator’s Brochure (IB); cited from earlier work
CYP2B6 = tested on: CYP2B6; design: method as in Investigator’s Brochure (IB); settings: ref Investigator’s Brochure (IB), cited from earlier work
CYP3A4/5 = tested on: CYP3A4/5; design: method as in Investigator’s Brochure (IB); settings: ref Investigator’s Brochure (IB), cited from earlier work

COCCCCCCCCCN1C[C@H](O)[C@@H](O)[C@H](O)[C@H]1CO [UV-4B, N-(9’-methoxynonyl)-1-deoxynojirimycin hydrochloride]
No clinically relevant effects ([1]; dog CV single dose, 10 mg/kg): −
Cardiovascular assessment ([1]; dogs, 10 mg/kg, ref Investigator’s Brochure (IB)): no clinically relevant effects
Cardiovascular assessment, only change outside the normal range ([1]; dogs, 50 or 200 mg/kg, ref Investigator’s Brochure (IB)): decreased arterial pulse pressure
AUC(0-t) ([2]; both sexes, dog, in vivo, 30 mg/kg/day, dogs, at NOAEL 30 mg/kg/day, read-out: Daily exposure [3 x AUC(0-8)]): 32800 ng·h/mL
HED of the lowest dose tested in dogs ([2]; from 2 mg/kg TID): 67 mg TID
Clastogenicity, chromosomal aberration in cultured human lymphocytes [3]: not found to be mutagenic or clastogenic
Neurologic finding [4]: tremors
Dose with lymphoid depletion in thymus ([5]; F): ≥ 25 mg/kg/dose, TID
Dose with lymphoid depletion in thymus ([5]; M): 100 mg/kg/dose, TID
Dose with neutrophilic infiltration and erosion/ulcer in rectum ([5]; females (printed F100))): 100 mg/kg/dose, TID
Neurologic Effects ([5]; functional observational battery): no effect in FOB
Dose with decrease in thymus weight ([5]; printed (men)): ≥ 25 mg/kg/dose, TID
Dose with increased AST ([5]; printed (men)): ≥ 600 mg/kg/dose, TID
Dose with decrease in thymus weight ([5]; women [sic]): 100 mg/kg/dose, TID
Dose with increased AST ([5]; women [sic]): 600 mg/kg/dose, TID
Cardiovascular Effects [5]: none observed
Dose with decrease in red cell mass, RBC count, HGB, and HCT [5]: 100 mg/kg/dose, TID
Dose with fecal abnormalities [5]: > 250 mg/kg/dose, TID
Stability trend of drug substance batches [6]: increases in water content
Solubility of the hydrochloride salt [7]: higher solubility

COCCCCCCCCCN1C[C@H](O)[C@@H](O)[C@H](O)[C@H]1CO [UV-4, N-(9’-methoxynonyl)-1-deoxynojirimycin]
Direct inhibition of CYP2C9 (CYP2C9): No clinically relevant direct inhibition
Bioavailability [8]: ≥ 99%
Direct inhibition of CYP2D6 (CYP2D6): No clinically relevant direct inhibition
Direct inhibition of CYP1A2 (CYP1A2): No clinically relevant direct inhibition
Estimated IC50 (CYP2B6; CYP2B6): > 191 µg/mL
IC50 (CYP2B6; CYP2B6, read-out: Estimated IC50): > 600 µM
Direct inhibition of CYP2B6 (CYP2B6; in vitro): weak direct inhibition
Direct inhibition of CYP3A4/5 (CYP3A4/5; midazolam 1’-hydroxylase): No clinically relevant direct inhibition
Direct inhibition of CYP3A4/5 (CYP3A4/5; testosterone 6β-hydroxylase): weak direct inhibition
Estimated IC50 (CYP3A4/5; testosterone 6β-hydroxylase): > 191 µg/mL
IC50 (CYP3A4/5; testosterone 6β-hydroxylase, read-out: Estimated IC50): > 600 µM
